These results are taken from PMC11359794, “Amorphous Polymer–Phospholipid Solid Dispersions for the Co-Delivery of Curcumin and Piperine Prepared via Hot-Melt Extrusion” (Pharmaceutics, 2024).

Converted amounts (≈) assume the structure as drawn. Like-named read-outs stand apart in the source and are kept apart here. Marks after values point to notes of the source that are not given here.

Data set [1] is described as follows: PAMPA permeability assay, gastrointestinal tract (GIT) model. Format: in vitro ADME. The following applies: donor pH ≈6.8, 4 h, 37 °C. The text has this: (§1) HPLC was used to measure the concentrations of piperine and curcumin in samples taken during permeability, dissolution, and solubility investigations. A Shimadzu LC-2050C (Shimadzu Corp., Kyoto, Japan) was equipped with a diode array detector (DAD). A Dr. Maisch ReproSil-Pur Basic-C18 100 Å column with a 5 µm particle size and a 100 × 4.60 mm size (Dr. Maisch, Ammerbuch-Entringen, Germany) was used as a stationary phase. HPLC-grade methanol/0.1% acetic acid (85:15 v/v) was used as the mobile phase. The mobile phase was vacuum filtered through a 0.45 µm nylon filter (Phenomenex, Torrance, CA, USA). The analysis parameters were as follows: a flow rate of 0.3 mL/min, a wavelength of 420 nm for curcumin and 340 nm for piperine, and a column temperature of 30 °C. The injection volume differed depending on the assay. […] The duration of the run was 9 min. […] Chromatograms (Figure S1) and method validation parameters (Table S1) were added to the Supplementary Materials. The Parallel Artificial Membrane Permeability Assay (PAMPA) models were used to study the permeability of the blood-brain barrier (BBB) and the gastrointestinal tract (GIT) in vitro. Two 96-well microfilter plates formed the sandwich. There were two chambers in the PAMPA system: the acceptor chamber at the top and the donor chamber at the bottom. […]
Background: The PAMPA barrier holds no transporters, so it reflects passive diffusion.

Data set [2] in a line: Differential scanning calorimetry (glass transition, glass-forming ability). The format is physicochemical. The following applies: heating–cooling–heating, different cooling rates; no crystallization during cooling and following heating. The method, then:
A DSC 214 Polyma differential scanning calorimeter (Netzsch, Selb, Germany) was used for the thermal analysis. Samples of about 5–10 mg were put into crimped aluminum pans with a small hole in the lid. To remove water from the samples, they were heated to 80 °C and kept for 8 min at this temperature, cooled to 25 °C, and then heated again to 235 °C. Raw compounds were heated to 235 °C, cooled to 25 °C, and then heated once again to 235 °C to determine their glass transition temperature (Tg). […] The Tg was taken as the midpoint between onset and endpoint temperatures. Various heating–cooling–heating cycles were carried out to evaluate the glass-forming abilities.
Background: DSC measures the heat that a sample takes up or gives off during a temperature scan.

Data set [3] is described as follows: PAMPA permeability assay, blood-brain barrier (BBB) model. Format: in vitro ADME. Conditions: donor pH ≈7.4, 4 h, 37 °C.
Text: as §1

Data set [4] is described as follows: Solubility studies (excess powder, 24 h, 25 °C, HPLC). Format: physicochemical. Conditions: for solubility at 24 h: 25 °C; for Solubility classification: based on solubility test at pH 1.2 and pH 6.8, crystalline compounds. The text has this:
HPLC was used to measure the concentrations of piperine and curcumin in samples taken during permeability, dissolution, and solubility investigations. A Shimadzu LC-2050C (Shimadzu Corp., Kyoto, Japan) was equipped with a diode array detector (DAD). A Dr. Maisch ReproSil-Pur Basic-C18 100 Å column with a 5 μm particle size and a 100 × 4.60 mm size (Dr. Maisch, Ammerbuch-Entringen, Germany) was used as a stationary phase. HPLC-grade methanol/0.1% acetic acid (85:15 v/v) was used as the mobile phase. The mobile phase was vacuum filtered through a 0.45 μm nylon filter (Phenomenex, Torrance, CA, USA). The analysis parameters were as follows: a flow rate of 0.3 mL/min, a wavelength of 420 nm for curcumin and 340 nm for piperine, and a column temperature of 30 °C. The injection volume differed depending on the assay. […] The duration of the run was 9 min. […] Chromatograms (Figure S1) and method validation parameters (Table S1) were added to the Supplementary Materials. The following steps were used to prepare phosphate buffer at pH 6.8: In a 1000 mL volumetric flask, 250 mL of 0.2 N potassium dihydrogen phosphate solution was added, followed by 112 mL of a 0.2 N sodium hydroxide solution. Purified water was added to make the volume up to 1000 mL. A hydrochloric acid solution with a pH of 1.2 was prepared according to the manufacturer's instructions ([…], Poznań, Poland) from the analytically weighed amount. A 10 mL glass tube was filled with an excess amount of powder (corresponding to 4 mg of each active substance). […] The obtained solutions were filtered, diluted 1:20 v/v with water, and filtered again through a 0.2 μm PTFE membrane filter (Sigma-Aldrich, St. Louis, MO, USA) and analyzed using the HPLC method described above.

For data set [5] the following is noted: cited from earlier work.

In general, solubility refers to the concentration that dissolves in the medium under given conditions. Consider `COc1cc(/C=C/C(=O)CC(=O)/C=C/c2ccc(O)c(OC)c2)ccc1O` [Curcumin], for which the results for the “Permeability, Curcumin Conc. in the acceptor solution” value in data set [1] and in data set [3] were 0.00061 ± 0.000038 ^g mg/mL and 0.00016 ± 0.000057 ^f mg/mL, respectively. Moreover, the Glass-forming ability entry in data set [2] is listed as “good glass-forming ability”. The solubility at 24 h in data set [4] (HCl solution, pH 1.2 HCl, read-out: Solubility, Curcumin Conc.) worked out at 0.11 ± 0.01 µg/mL (≈ 0.299 µM). Moreover, in data set [4], the Solubility classification entry was “practically insoluble”.

For orientation: Log P means the decadic logarithm of the partition coefficient of the neutral form, usually between octanol and water. Turning to `O=C(/C=C/C=C/c1ccc2c(c1)OCO2)N1CCCCC1` [Piperine], the “Permeability, Piperine Conc. in the acceptor solution” value in data set [1] is listed as 0.0044 ± 0.0008 ^g mg/mL; in data set [3], 0.0051 ± 0.0003 ^f mg/mL. Moreover, in data set [2], the Glass-forming ability result was “good glass-forming ability”. The solubility at 24 h in data set [4] (HCl solution, simulated gastric fluid, thermodynamic from solid, pH 1.2 HCl, read-out: Solubility, Piperine Conc.) was 9 ± 0.6 µg/mL (≈ 31.5 µM); in data set [4] (aqueous buffer, thermodynamic from solid, pH 6.8 phosphate buffer, read-out: Solubility, Piperine Conc.), 8 ± 0.4 µg/mL (≈ 28 µM). For the same molecule, in data set [4], the Solubility classification entry is recorded as “practically insoluble”. Also, the “Log P” value in data set [5] is 2.78.
